Experimental data: ChEMBL document CHEMBL1821670, “Synthesis and in vitro biological evaluation of carbonyl group-containing analogues for σ1 receptors” (J Med Chem, 2011)

Tests used:
[1] = molecular target: Sigma non-opioid intracellular receptor 1 (Cavia porcellus, UniProt Q60492); assay: Displacement of (+)-[3H]pentazocine from sigma 1 receptor in guinea pig brain membrane homogenates after 90 mins by liquid scintillation counting; type: cell membranes
[2] = Displacement of [3H]-DTG from sigma 2 receptor in rat liver membrane homogenates after 2 hrs by liquid scintillation counting; type: cell membranes
[3] = Selectivity ratio of Ki for sigma 1 receptor in guinea pig brain membrane homogenates to Ki for human VAChT; type: cell membranes
[4] = Selectivity ratio of Ki for sigma 1 receptor in guinea pig brain membrane homogenates to Ki for sigma 2 receptor in rat liver membrane homogenates; type: cell membranes
[5] = molecular target: T1, Vesicular acetylcholine transporter (Homo sapiens, UniProt Q16572); assay: Displacement of (-)-[3H]vesamicol from human VAChT expressed in rat PC12 A123.7 cells after 20 hrs; type: cell-based, PC-12
T1 sequence (Q16572 whole entry): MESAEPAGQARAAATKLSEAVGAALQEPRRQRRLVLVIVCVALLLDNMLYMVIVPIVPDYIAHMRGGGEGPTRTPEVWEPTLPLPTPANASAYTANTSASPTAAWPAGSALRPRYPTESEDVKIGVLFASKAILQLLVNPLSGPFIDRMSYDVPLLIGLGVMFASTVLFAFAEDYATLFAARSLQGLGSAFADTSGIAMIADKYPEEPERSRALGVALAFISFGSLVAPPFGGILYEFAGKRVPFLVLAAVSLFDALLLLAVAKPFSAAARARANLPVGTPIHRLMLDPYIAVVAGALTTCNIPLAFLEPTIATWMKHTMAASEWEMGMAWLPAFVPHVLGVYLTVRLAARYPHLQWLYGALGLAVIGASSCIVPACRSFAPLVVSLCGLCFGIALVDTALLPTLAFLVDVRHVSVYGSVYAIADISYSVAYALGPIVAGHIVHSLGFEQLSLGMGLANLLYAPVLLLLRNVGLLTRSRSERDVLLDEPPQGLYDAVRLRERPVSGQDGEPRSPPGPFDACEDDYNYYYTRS

Sequence of Sigma non-opioid intracellular receptor 1 (Q60492 whole entry): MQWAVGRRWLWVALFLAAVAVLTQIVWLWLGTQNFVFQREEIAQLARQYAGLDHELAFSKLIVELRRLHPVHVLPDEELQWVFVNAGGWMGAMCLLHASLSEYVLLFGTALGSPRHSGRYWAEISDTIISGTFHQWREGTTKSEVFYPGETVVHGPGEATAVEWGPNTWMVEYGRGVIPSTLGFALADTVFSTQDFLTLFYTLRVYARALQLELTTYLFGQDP

O[C@@H]1CCCC[C@H]1N1CCC(c2ccccc2)CC1 [VESAMICOL]
Ki [1]: 73.8 nM
Ki [2]: 346 nM

O=C(c1ccc(F)cc1)C1CCN([C@H]2CCN(C(=O)c3ccc(F)cc3)C[C@@H]2O)CC1 (relative stereo)
Ratio Ki [3]: 1.1
Ratio Ki [4]: 2.7
Ki [2]: 8640 nM

O[C@@H]1CCN(Cc2cccc(I)c2)C[C@H]1N1CCC(c2ccccc2)CC1
Ki [1]: 92 nM
Ki [2]: 190 nM

COc1ccc(C(=O)C2CCN([C@H]3CN(Cc4ccccc4)CC[C@@H]3O)CC2)cc1 (relative stereo)
Ratio Ki [3]: 0.17
Ratio Ki [4]: 41
Ki [2]: 8540 nM

O[C@@H]1CCN(Cc2ccc(F)cc2)C[C@H]1N1CCC(c2ccccc2)CC1
Ki [2]: 35.9 nM

COc1ccc(C(=O)C2CCN([C@H]3CN(Cc4cccnc4)CC[C@@H]3O)CC2)cc1 (relative stereo)
Ki [2]: 17100 nM

O=C(c1ccc(F)cc1)C1CCN([C@H]2CN(Cc3cccnc3)CC[C@@H]2O)CC1 (relative stereo)
Ratio Ki [3]: 0.2
Ratio Ki [4]: 11
Ki [2]: 13000 nM

COc1ccc(CCN2CCN(CCCc3ccccc3)CC2)cc1OC
Ki [2]: 242 nM

Cc1ccc(C2CCN([C@@H]3CCCC[C@H]3O)CC2)cc1
Ki [1]: 8.1 nM
Ki [5]: 22.9 nM
Ki [2]: 42.4 nM
